Measurements taken from patent US20260152487A1 (Sitryx Therapeutics Limited, priority 2021, published 2026).

Assays:
[1] = biological target: T1, recombinant human PKM2 (Homo sapiens, UniProt P14618); experiment: Human PKM2 activation assay (Kinase-Glo Plus luminescent detection of generated ATP); format: biochemical; conditions: for Emax: percentage activation normalised to DMSO vehicle (LOW) and 5 μM TEPP-46 (HIGH), read-out: hPKM2 Emax; for EC50: recombinant human PKM2 activation, 4-parameter logistic fit, read-out: hPKM2 EC50
T1 construct: His (N); purchased R&D Systems
Method in brief: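 Luminescent ATP detection (Kinase-Glo Plus, 15 min, 26 °C) followed a 60 min, 26 °C shaken reaction of compound with […] His-tagged human PKM2, PEP and ADP in imidazole/KCl/MgCl2 buffer with Tween20 and BSA, pH 7.2.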

[2] = system: A549 cells; experiment: A549 cell proliferation in low-serine medium (CellTiter-Glo 2.0 viable cell number); format: cell-based; conditions: Homo sapiens, 72 h, 3 days, Assay Medium with 20 μM L-serine
Description: The effect of compounds of Formula (Ia) on A549 cell proliferation in low-serine medium was assessed using a luminescence assay of viable cell number (CellTiter-Glo® 2.0, Promega) duplexed with a fluorescent cytotoxicity assessment (CelITox™ Green, Promega). Cell culture reagents were from ThermoFisher unless specified otherwise. Assay reagents were from Sigma-Aldrich unless specified otherwise. Test Compounds were prepared as 10 mM DMSO stocks and dilution series prepared in DMSO for direct dilution into culture medium.
Cells were passaged every 3-4 days at 80-90% confluence. The cell monolayer was washed twice with room-temperature Ca^2+/Mg-free PBS and 4 ml room-temperature trypsin-EDTA added to the flask. After 5 minutes' incubation (37° C., 5% CO2) to detach cells, trypsin was quenched with 13 ml warmed complete growth medium and the cells harvested and diluted to 2.4×10^4 cells/ml for dispensing into 384-well clear-bottom black-walled plates (600 cells/well).
Following overnight incubation, growth medium was aspirated from each well and the cells washed twice with Assay Medium comprising Basal Medium Eagle supplemented with 3% heat-inactivated dialysed FBS plus 2 mM L-glutamine plus 20 μM L-serine (Sigma-Aldrich). After aspiration of the final wash medium, Assay Medium containing Test Compound was added to each well. DMSO vehicle controls were included on each plate.
Cells were incubated for 3 days in a humidified incubator (37° C., 5% CO2) at which point CelITox™ Green and CellTiter-Glo® reagents were prepared according to the manufacturer's instructions. Triton-X was added to HIGH wells for cytotoxicity determination and the plate incubated for 30 minutes (20° C., ambient humidity and pCO2). CelITox™ Green reagent was added to each well and the plate covered, placed on an orbital shaker @450 rpm for 2 minutes, and incubated in the dark for 15 minutes (20° C., ambient humidity and pCO2). Endpoint fluorescence was measured using a plate reader (PHERAstar® FSX, BMG Labtech).
Following cytotoxicity determination, CellTiter-Glo® reagent was added to each well and the plate placed on an orbital shaker @450 rpm for 2 minutes to lyse cells. Plates were incubated in the dark for 15-30 minutes (20° C., ambient humidity and pCO2) prior to endpoint luminescence measurement (PHERAstar® FSX, BMG Labtech).
Proliferation was calculated by normalizing luminescence signals to LOW controls obtained from a parallel plate processed at the time of Test Compound challenge and HIGH (DMSO vehicle) wells from the compound plate. IC50 values were determined from a 4-parameter logistic fit of compound concentration-response curves.

T1 sequence (P14618 2-531 limits assumed): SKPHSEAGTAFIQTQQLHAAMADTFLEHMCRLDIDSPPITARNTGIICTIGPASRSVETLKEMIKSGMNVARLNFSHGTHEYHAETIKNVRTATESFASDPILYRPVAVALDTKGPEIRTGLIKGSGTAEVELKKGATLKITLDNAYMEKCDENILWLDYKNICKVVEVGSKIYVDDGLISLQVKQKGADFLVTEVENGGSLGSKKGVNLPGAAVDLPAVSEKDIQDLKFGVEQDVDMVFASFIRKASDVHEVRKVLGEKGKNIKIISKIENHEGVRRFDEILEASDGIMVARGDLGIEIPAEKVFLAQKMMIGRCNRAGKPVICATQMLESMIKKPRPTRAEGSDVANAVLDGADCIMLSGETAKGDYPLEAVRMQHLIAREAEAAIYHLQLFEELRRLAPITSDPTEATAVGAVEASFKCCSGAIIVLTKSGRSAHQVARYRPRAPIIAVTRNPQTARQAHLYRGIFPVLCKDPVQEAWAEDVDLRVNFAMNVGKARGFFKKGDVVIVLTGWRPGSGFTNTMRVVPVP

| Emax [1] [%] | EC50 [1] [nM] | IC50 [2] [nM] | Structure (SMILES) |
| --- | --- | --- | --- |
| 113 | 117 | 3.1 | NC(=O)c1sccc1Cn1ncc2cc(S(=O)(=O)c3ccccc3)ccc2c1=O [Example 13, 3-((1-oxo-6-(phenylsulfonyl)phthalazin-2(1H)-yl)methyl)thiophene-2-carboxamide] |
| 124 | 243 | 15.8 | NC(=O)c1c[nH]nc1Cn1ncc2cc(S(=O)(=O)c3ccccc3)ccc2c1=O [Example 15, 3-((1-oxo-6-(phenylsulfonyl)phthalazin-2(1H)-yl)methyl)-1H-pyrazole-4-carboxamide] |
| 54.9 | 112 | 2.9 | CNC(=O)c1occc1Cn1ncc2cc(S(=O)(=O)c3ccc(OC)cc3)ccc2c1=O [Example 17, 3-((6-((4-methoxyphenyl)sulfonyl)-1-oxophthalazin-2(1H)-yl)methyl)-N-methylfuran-2-carboxamide] |
| 65.3 | 133 | 4.2 | O=c1c2ccc(S(=O)(=O)c3ccccc3)cc2cnn1C(CO)c1ccccc1 (centres unmarked) [Example 19, 2-(2-hydroxy-1-phenylethyl)-6-(phenylsulfonyl)phthalazin-1(2H)-one] |
| 102 | 131 | 12.1 | O=c1c2ccc(S(=O)(=O)c3ccccc3)cc2cnn1Cc1ccc(OCCO)nc1 [Example 21, 2-((6-(2-hydroxyethoxy)pyridin-3-yl)methyl)-6-(phenylsulfonyl)phthalazin-1(2H)-one] |
| 85 | 33.7 | 0.8 | O=c1c2ccc(S(=O)(=O)c3ccccc3)cc2cnn1Cc1ccc2c(c1)OCCO2 [Example 29, 2-((2,3-dihydrobenzo[b][1,4]dioxin-6-yl)methyl)-6-(phenylsulfonyl)phthalazin-1(2H)-one] |
| 99.4 | 739 | 15.8 | Cc1ncc(Cn2ncc3cc(S(=O)(=O)c4ccccc4)ccc3c2=O)s1 [Example 30, 2-((2-methylthiazol-5-yl)methyl)-6-(phenylsulfonyl)phthalazin-1(2H)-one] |
| 74.9 | 809 | 42 | COc1cncc(Cn2ncc3cc(S(=O)(=O)c4ccccc4)ccc3c2=O)c1 [Example 31, 2-((5-methoxypyridin-3-yl)methyl)-6-(phenylsulfonyl)phthalazin-1(2H)-one] |
| 99.6 | 163 | 3.2 | O=c1c2ccc(S(=O)(=O)c3ccccc3)cc2cnn1Cc1ccccc1F [Example 32, 2-(2-fluorobenzyl)-6-(phenylsulfonyl)phthalazin-1(2H)-one] |
| 105 | 63.3 | 1.7 | COc1ccc(F)c(Cn2ncc3cc(S(=O)(=O)c4ccccc4)ccc3c2=O)c1 [Example 33, 2-(2-fluoro-5-methoxybenzyl)-6-(phenylsulfonyl)phthalazin-1(2H)-one] |
| 79 | 506 | 64.8 | O=c1c2ccc(S(=O)(=O)c3ccccc3)cc2cnn1Cc1cccc2nccn12 [Example 34, 2-(imidazo[1,2-a]pyridin-5-ylmethyl)-6-(phenylsulfonyl)phthalazin-1(2H)-one] |
| 110 | 183 | 10.4 | CC1(C)Cc2cc(Cn3ncc4cc(S(=O)(=O)c5ccccc5)ccc4c3=O)ccc2O1 [Example 35, 2-((2,2-dimethyl-2,3-dihydrobenzofuran-5-yl)methyl)-6-(phenylsulfonyl)phthalazin-1(2H)-one] |
| 70 | 207 | 20.6 | Cn1ncc2cc(Cn3ncc4cc(S(=O)(=O)c5ccccc5)ccc4c3=O)ccc21 [Example 36, 2-((1-methyl-1H-indazol-5-yl)methyl)-6-(phenylsulfonyl)phthalazin-1(2H)-] |
| 118 | 133 | 3.6 | COc1cccc(Cn2ncc3cc(S(=O)(=O)c4ccccc4)ccc3c2=O)n1 [Example 37, 2-((6-methoxypyridin-2-yl)methyl)-6-(phenylsulfonyl)phthalazin-1(2H)-one] |
| 71.9 | 150 | 7.4 | Cn1ncc2ccc(Cn3ncc4cc(S(=O)(=O)c5ccccc5)ccc4c3=O)cc21 [Example 39, 2-((1-methyl-1H-indazol-6-yl)methyl)-6-(phenylsulfonyl)phthalazin-1(2H)-one] |
| – | – | 21.7 | COc1ccc(S(=O)(=O)c2ccc3c(=O)n(Cc4ccnc(O)c4)ncc3c2)cc1 [Example 55, 2-((2-hydroxypyridin-4-yl)methyl)-6-((4-methoxyphenyl)sulfonyl)phthalazin-1(2H)-one] |
| – | – | 4.4 | O=C(c1ccc(NS(=O)(=O)c2cccc3cccnc23)cc1)N1CCN(CC2CC2)CC1 [Mitapivat, mitapivat, reference compound] |

Continued, molecule first:

| Structure (SMILES) | Emax [1] [%] | EC50 [1] [nM] | IC50 [2] [nM] |
| --- | --- | --- | --- |
| COc1ccc(S(=O)(=O)c2ccc3c(=O)n(Cc4cccc5c4CCN5)ncc3c2)cc1 [Example 2, 2-(indolin-4-ylmethyl)-6-((4-methoxyphenyl)sulfonyl)phthalazin-1(2H)-one] | 97 | 66.4 | 0.8 |
| COc1ccc(S(=O)(=O)c2ccc3c(=O)n(Cc4cccn(C)c4=O)ncc3c2)cc1 [Example 4, 6-((4-methoxyphenyl)sulfonyl)-2-((1-methyl-2-oxo-1,2-dihydropyridin-3-yl)methyl)phthalazin-1(2H)-one] | 106 | 53.9 | 0.7 |
| COc1ccc(S(=O)(=O)c2ccc3c(=O)n(Cc4cc[nH]n4)ncc3c2)cc1 [Example 6, 2-((1H-pyrazol-3-yl)methyl)-6-((4-methoxyphenyl)sulfonyl)phthalazin-1(2H)-one] | 109 | 38.9 | 1.7 |
| O=c1c2ccc(S(=O)(=O)c3ccccc3)cc2cnn1Cc1cncc(O)c1 [Example 7, 2-((5-hydroxypyridin-3-yl)methyl)-6-(phenylsulfonyl)phthalazin-1(2H)-one] | 99.8 | 177 | 6.7 |
| COCC(c1ccc(OC)nc1)n1ncc2cc(S(=O)(=O)c3ccccc3)ccc2c1=O (centres unmarked) [Example 8, 2-(2-methoxy-1-(6-methoxypyridin-3-yl)ethyl)-6-(phenylsulfonyl)phthalazin-1(2H)-one] | 80.8 | 931 | 218 |
| NC(=O)c1ncccc1Cn1ncc2cc(S(=O)(=O)c3ccccc3)ccc2c1=O [Example 9, 3-((1-oxo-6-(phenylsulfonyl)phthalazin-2(1H)-yl)methyl)picolinamide] | 105 | 362 | 17.5 |
| O=c1c2ccc(S(=O)(=O)c3ccccc3)cc2cnn1Cc1ccn(CCO)n1 [Example 10, 2-((1-(2-hydroxyethyl)-1H-pyrazol-3-yl)methyl)-6-(phenylsulfonyl)phthalazin-1(2H)-one] | 98.8 | 166 | 7.8 |
| CCn1ccc(Cn2ncc3cc(S(=O)(=O)c4ccccc4)ccc3c2=O)n1 [Example 11, 2-((1-ethyl-1H-pyrazol-3-yl)methyl)-6-(phenylsulfonyl)phthalazin-1(2H)-one] | 99 | 72.4 | 3.9 |
| Cc1c[nH]nc1Cn1ncc2cc(S(=O)(=O)c3ccccc3)ccc2c1=O [Example 12, 2-((4-methyl-1H-pyrazol-3-yl)methyl)-6-(phenylsulfonyl)phthalazin-1(2H)-one] | 92 | 63.6 | 2.7 |
| O=c1c2ccc(S(=O)(=O)c3ccccc3)cc2cnn1Cc1ccccc1CO [Example 20, 2-(2-(hydroxymethyl)benzyl)-6-(phenylsulfonyl)phthalazin-1(2H)-one] | 90.7 | 249 | 6.4 |
| COc1ccc(S(=O)(=O)c2ccc3c(=O)n(Cc4ccn(CCO)n4)ncc3c2)cc1 [Example 24, 2-((1-(2-hydroxyethyl)-1H-pyrazol-3-yl)methyl)-6-((4-methoxyphenyl)sulfonyl)phthalazin-1(2H)-one] | 123 | 107 | 3 |
